Reference: US7439396B2, “Pharmaceutical/cosmetic compositions comprising novel ligands that activate RAR receptors” (Galderma Research & Development, priority 2003, dated 2008)

Assays:
Format in all cases: cell-based
RAR gamma = biological target: T1, RAR gamma (Homo sapiens, UniProt P13631); test: Transactivation test, HeLa cells stably transfected with RAR gamma ER-DBD and ERE-luciferase reporter; conditions: for AC50: at the reference ligand concentration that gives 80% activation; for Kd: crossed curves against reference antagonist, Schild regression, read-out: RAR gamma Kd app
T1 sequence (P13631 185-419 limits assumed): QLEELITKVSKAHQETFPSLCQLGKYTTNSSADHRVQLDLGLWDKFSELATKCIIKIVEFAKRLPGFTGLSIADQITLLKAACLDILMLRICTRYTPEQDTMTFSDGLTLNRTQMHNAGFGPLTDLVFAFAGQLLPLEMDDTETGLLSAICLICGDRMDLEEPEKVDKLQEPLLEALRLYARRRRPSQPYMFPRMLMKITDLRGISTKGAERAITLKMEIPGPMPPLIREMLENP
Protocol: (§1) The activation of receptors with an agonist (activator) in HeLa cells leads to the expression of a reporter gene, luciferase, which, in the presence of a substrate, generates light. The activation of the receptors may thus be measured by quantifying the luminescence produced after incubating the cells in the presence of a reference antagonist. The activating products displace the antagonist from its site, thus permitting activation of the receptor. The activity is measured by quantifying the increase in light produced. This measurement makes it possible to determine the activating activity of the compounds according to the invention.
(§2) In this study, a constant is determined which is the affinity of the molecule for the receptor. Since this value can fluctuate depending on the basal activity and the expression of the receptor, it is referred to as the Kd apparent (KdApp).
(§3) To determine this constant, “crossed curves” of the test product against a reference antagonist, 4-(5,5-dimethyl-8-p-tolyl-5,6-dihydro-2-naphthalen-2-ylethynyl)benzoic acid, are performed in 96-well plates. The test product is used at 10 concentrations and the reference antagonist at 7 concentrations. In each well, the cells are in contact with a concentration of the test product and a concentration of the reference antagonist, 4-(5,5-dimethyl-8-p-tolyl-5,6-dihydro-2-naphthalen-2-ylethynyl)benzoic acid. Measurements are also taken for the total agonist (4-[2-(5,5,8,8-tetramethyl-5,6,7,8-tetrahydro-2-naphthyl)propenyl]benzoic acid) and inverse agonist, 4-{(E)-3-[4-(4-tert-butylphenyl)-5,5,8,8-tetramethyl-5,6,7,8-tetrahydro-2-naphthyl]-3-oxopropenyl}benzoic acid, controls.
(§4) These crossed curves make it possible to determine the AC50 values (concentration at which 50% activation is observed) for the reference ligand at various concentrations of test product. These AC50 values are used to calculate the Schild regression by plotting a straight line corresponding to the Schild equation (“Quantitation in Receptor Pharmacology” Terry P. Kenakin, Receptors and Channels, 2001, 7, 371-385).
(§5) In the case of an agonist, an AC50 value (concentration that gives 50% of the activity) is calculated by plotting the curve of the product at the concentration of the reference ligand that gives 80% activation.
(§6) The HeLa cell lines used are stable transfectants containing the plasmids ERE-μGlob-Luc-SV-Neo (reporter gene) and RAR (α, β, γ) ER-DBD-puro. These cells are inoculated into 96-well plates at a rate of 10 000 cells per well in 100 μl of DMEM medium without phenol red, and supplemented with 10% defatted calf serum. […]
(§7) The culture medium is removed by turning over and 100 μl of a 1:1 PBS/luciferin mixture is added to each well. After 5 minutes, the plates are read using the luminescence reader.

RAR beta = biological target: T2, RAR beta (Homo sapiens, UniProt P10826); test: Transactivation test, HeLa cells stably transfected with RAR beta ER-DBD and ERE-luciferase reporter; conditions: for AC50: at the reference ligand concentration that gives 80% activation; for Kd: crossed curves against reference antagonist, Schild regression, read-out: RAR beta Kd app
T2 sequence (P10826 183-417 limits assumed): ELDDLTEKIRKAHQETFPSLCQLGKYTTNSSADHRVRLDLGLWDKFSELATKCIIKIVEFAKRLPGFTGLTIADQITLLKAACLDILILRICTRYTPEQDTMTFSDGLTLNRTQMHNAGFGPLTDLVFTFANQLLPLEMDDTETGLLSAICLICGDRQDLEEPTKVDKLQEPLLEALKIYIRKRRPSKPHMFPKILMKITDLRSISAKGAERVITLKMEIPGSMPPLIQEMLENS
Protocol: as §1, §2, §3, §4, §5, §6, §7

RAR alpha = biological target: T3, RAR alpha (Homo sapiens, UniProt P10276); test: Transactivation test, HeLa cells stably transfected with RAR alpha ER-DBD and ERE-luciferase reporter
T3 sequence (P10276 183-417 limits assumed): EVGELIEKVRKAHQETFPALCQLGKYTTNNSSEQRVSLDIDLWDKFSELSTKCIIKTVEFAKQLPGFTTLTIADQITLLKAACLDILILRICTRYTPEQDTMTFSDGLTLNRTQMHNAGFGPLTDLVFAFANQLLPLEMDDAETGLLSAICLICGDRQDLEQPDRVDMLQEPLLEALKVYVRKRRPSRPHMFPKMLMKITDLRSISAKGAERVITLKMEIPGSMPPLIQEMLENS
Protocol: as §1
In this study, a constant is determined which is the affinity of the molecule for the receptor. […]
as §4
In the case of an agonist, an AC50 value (concentration that gives 50% of the activity) is calculated by plotting the curve of the product at the concentration of the reference ligand that gives 80% activation. […]

AC50 (RAR gamma) | Kd (RAR gamma) | AC50 (RAR beta) | Kd (RAR beta) | AC50 (RAR alpha; at the reference ligand concentration that gives 80% activation) | Kd (RAR alpha; crossed curves against reference antagonist, Schild regression, read-out: RAR alpha Kd app) | Compound
80 nM | 60 nM | 2500 nM | 500 nM | – | – | CCN(CC)c1ccc(C(COc2ccc(C(=O)O)cc2)=NO)cc1C(C)(C)C [Ex 1, 4-[2-(3-tert-Butyl-4-diethylaminophenyl)-2-hydroxyiminoethoxy]benzoic acid]
4 nM | 4 nM | 1000 nM | 500 nM | 5000 nM | 5000 nM | CCN(CC)c1ccc(C(COc2ccc(C(=O)O)c(O)c2)=NO)cc1C(C)(C)C [Ex 2, 4-[2-(3-tert-Butyl-4-diethylaminophenyl)-2-hydroxyiminoethoxy]-2-hydroxybenzoic acid]
